1 molecule from publication PMC7892824, “Eltrombopag directly inhibits BAX and prevents cell death” (Nature Communications, 2021) can be followed below.

The target in one experiment is T1, BAX R134E (Homo sapiens, UniProt Q07812, R134E).
T1 construct: full-length (1–192)
As to the kind of experiment: 1H-15N HSQC NMR chemical shift perturbation; liposomal release inhibition. The class given is binding.

The target of the next experiment is T2, BAX (Mus musculus, UniProt Q07813).
T2 construct: endogenous BAX in BAK KO mouse embryonic fibroblasts
As to the kind of experiment: CETSA, […] EO, TM lowered by […] °C. The class given is cell-based. Conditions: read-out: CETSA, 10 μM EO, TM lowered by 9 °C.

T1 sequence (Q07812 whole entry R134E): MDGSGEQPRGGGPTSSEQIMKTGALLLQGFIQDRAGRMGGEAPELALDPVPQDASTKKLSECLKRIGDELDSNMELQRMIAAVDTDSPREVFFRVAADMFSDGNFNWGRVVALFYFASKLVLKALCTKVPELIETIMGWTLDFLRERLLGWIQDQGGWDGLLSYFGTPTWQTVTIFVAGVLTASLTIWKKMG
T2 sequence (Q07813 whole entry): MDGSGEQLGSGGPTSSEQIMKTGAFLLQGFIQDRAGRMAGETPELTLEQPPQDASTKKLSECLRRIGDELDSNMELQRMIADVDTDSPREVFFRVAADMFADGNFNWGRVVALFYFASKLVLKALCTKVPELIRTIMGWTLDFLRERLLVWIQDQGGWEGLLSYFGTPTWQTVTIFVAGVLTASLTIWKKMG

`CC1=NN(c2ccc(C)c(C)c2)C(=O)/C1=N\Nc1cccc(-c2cccc(C(=O)O)c2)c1O` [compound 2, Eltrombopag]: at BAX R134E, the “1H-15N HSQC NMR chemical shift perturbation; liposomal release inhibition” value is recorded as “BAX R134E in the presence of EO exhibited clustering of CSPs to the trigger site, albeit with reduced CSPs”. For the same molecule, the Tm decrease at 10 µM on BAX was 9 °C.
